± gives the expanded uncertainty stated by the source.
What was measured:
[1] = 101 kPa, Liquid
[2] = xn = mol fraction of the nth substance listed; conditions: 101 kPa, Liquid, x2 = 0

| mass density ([1]; 298.15 K) [kg/m3] | mass density ([1]; 303.15 K) [kg/m3] | mass density ([1]; 308.15 K) [kg/m3] | mass density ([1]; 313.15 K) [kg/m3] | mass density ([1]; 318.15 K) [kg/m3] | mass density ([1]; 323.15 K) [kg/m3] | mass density ([1]; 328.15 K) [kg/m3] | mass density ([1]; 333.15 K) [kg/m3] | mass density ([1]; 338.15 K) [kg/m3] | mass density ([1]; 343.15 K) [kg/m3] | mass density ([2]; 298.15 K) [kg/m3] | mass density ([2]; 303.15 K) [kg/m3] | mass density ([2]; 308.15 K) [kg/m3] | mass density ([2]; 313.15 K) [kg/m3] | mass density ([2]; 318.15 K) [kg/m3] | mass density ([2]; 323.15 K) [kg/m3] | mass density ([2]; 328.15 K) [kg/m3] | mass density ([2]; 333.15 K) [kg/m3] | mass density ([2]; 338.15 K) [kg/m3] | mass density ([2]; 343.15 K) [kg/m3] | SMILES |
| --- | --- | --- | --- | --- | --- | --- | --- | --- | --- | --- | --- | --- | --- | --- | --- | --- | --- | --- | --- | --- |
| 1010.2 ± 1.4 | 1005.8 ± 1.4 | 1001.4 ± 1.3 | 997 ± 1.3 | 992.6 ± 1.4 | 988.2 ± 1.5 | 983.9 ± 1.5 | 979.5 ± 1.6 | 975.1 ± 1.7 | 970.6 ± 1.8 | – | – | – | – | – | – | – | – | – | – | CC[S+]([O-])CC [diethyl sulfoxide] |
| – | – | – | – | – | – | – | – | – | – | 996.6 ± 1.3 | 995.2 ± 1.4 | 993.6 ± 1.4 | 991.9 ± 1.4 | 989.7 ± 1.4 | 987.6 ± 1.5 | 985.3 ± 1.5 | 982.8 ± 1.6 | 979.3 ± 1.6 | 977.5 ± 1.6 | O [water] + CC[S+]([O-])CC |
